Reference: ChEMBL document CHEMBL6182924, “Discovery of a Novel and Potent MET Transcription Inhibitor Targeting Promoter G-Quadruplex for the Treatment of NSCLC” (J Med Chem, 2025)
Active and inactive are the calls of the source. No cut-off for these calls is given here.

Experiments:
[1] = system: A549; experiment: Antiproliferative activity against human A549 cells incubated for 3 days by CCK-8 assay; assay type: functional, cell-based; settings: A549, 72 h
[2] = system: Quadruplex DNA; experiment: Binding affinity to G-quadruplex DNA (unknown origin) at 5 uM by fluorescence quenching analysis; assay type: nucleic-acid assay
[3] = system: A549; experiment: Downregulation of c-MYC expression in human A549 cells up to 2000 nM incubated for 72 hrs by Western blot analysis; assay type: functional, cell-based
[4] = system: A549; experiment: Antitumor activity against human A549 cells xenografted in BALB/c mouse assessed as tumor growth inhibition at 20 mg/kg, po administered once a day and measured up to 24 days; assay type: functional; settings: A549, 576 h, time <= 24 day, read-out: TGI
[5] = system: BaF3; experiment: Antiproliferative activity against mouse BaF3 cells harboring TPR-MET […] mutant incubated for 24 hrs by CCK-8 assay; assay type: functional, cell-based; settings: BaF3, 24 h
[6] = system: BaF3; experiment: Antiproliferative activity against mouse BaF3 cells harboring TPR-MET D1228N mutant incubated for 24 hrs by CCK-8 assay; assay type: functional, cell-based; settings: BaF3, 24 h
[7] = system: BaF3; experiment: Antiproliferative activity against mouse BaF3 cells harboring TPR-MET L1195V mutant incubated for 24 hrs by CCK-8 assay; assay type: functional, cell-based; settings: BaF3, 24 h

| SMILES | IC50 [1] | further results |
| --- | --- | --- |
| N#Cc1cccc(-c2csc(-c3nc4c5cccnc5c5ncccc5c4[nH]3)c2)c1 | 6.53 µM | – |
| N#Cc1cccc(C(=O)Nc2cccc(-c3cc4cccnc4c4ncccc34)c2)c1 | 2.51 µM | – |
| O=C(Nc1cccc(-c2cc3cccnc3c3ncccc23)c1)c1ccc(Cl)nc1 | 3.44 µM | – |
| c1cnc2c(c1)c1nc(-c3ccc(-c4ccc5c(c4)OCCO5)o3)[nH]c1c1cccnc12 | 0.71 µM | – |
| COc1ccc(C(=O)Nc2cccc(-c3cc4cccnc4c4ncccc34)c2)cc1 | 1.13 µM | – |
| Brc1ccc(-c2nc3c4cccnc4c4ncccc4c3[nH]2)o1 | 4.47 µM | – |
| COc1cc(-c2nc3c4cccnc4c4ncccc4c3[nH]2)cc2c1OCO2 | – | Activity [2]: Active |
| Fc1cccc(-c2ccc(-c3nc4c5cccnc5c5ncccc5c4[nH]3)o2)c1 | 1.43 µM | – |
| O=[N+]([O-])c1ccc(-c2ccc(-c3nc4c5cccnc5c5ncccc5c4[nH]3)o2)cc1 | 3.2 µM | – |
| COc1cccc(-c2csc(-c3nc4c5cccnc5c5ncccc5c4[nH]3)c2)c1 | 0.58 µM | – |
| O=C(Nc1cccc(-c2cc3cccnc3c3ncccc23)c1)c1ccc2nccnc2c1 | 0.8 µM | Activity [3]: Active |
| COc1cc2nccc(Oc3ccc(NC(=O)C4(C(=O)Nc5ccc(F)cc5)CC4)cc3)c2cc1OC [CABOZANTINIB] | 4.4 µM | inhibition in vivo at 20 mg/kg [4]: 51.7%; IC50 [5]: 3.98 µM; IC50 [6]: 5.84 µM; IC50 [7]: 0.92 µM |
| Oc1ccc(-c2ccc(-c3nc4c5cccnc5c5ncccc5c4[nH]3)o2)cc1 | 2.13 µM | – |
| Nc1cccc(-c2cc3cccnc3c3ncccc23)c1 | – | Activity [2]: Active |
| COc1cccc(C(=O)Nc2cccc(-c3cc4cccnc4c4ncccc34)c2)c1OC | 1.2 µM | – |
| O=C(Nc1cccc(-c2cc3cccnc3c3ncccc23)c1)c1ccccc1 | 1.79 µM | – |
| c1cnc2c(c1)c1nc(-c3cc(-c4ccc5c(c4)OCCO5)cs3)[nH]c1c1cccnc12 | 0.89 µM | – |
| N#Cc1ccc(-c2ccc(-c3nc4c5cccnc5c5ncccc5c4[nH]3)o2)cc1 | 4.9 µM | – |
| Cn1ccc(-c2csc(-c3nc4c5cccnc5c5ncccc5c4[nH]3)c2)n1 | 3.72 µM | – |
| Brc1csc(-c2nc3c4cccnc4c4ncccc4c3[nH]2)c1 | 6.1 µM | – |
| N#Cc1cccc(-c2ccc(-c3nc4c5cccnc5c5ncccc5c4[nH]3)o2)c1 | 1.05 µM | – |
| Cn1ccc(-c2ccc(-c3nc4c5cccnc5c5ncccc5c4[nH]3)o2)n1 | 4.95 µM | – |
